Experiments:
MreB = target: T1, MreB (Escherichia coli, UniProt P0A9X4); type: cell-based, E. coli
T1 construct: the protein is expressed as a fusion of the full-length bacterial protein with a reporter; expressed in transfected cells; host or cells: Schizosaccharomyces pombe (pREP42-gfp-mreB, nmt42 promoter)
Protocol: GFP-MreB and FtsZ-GFP were expressed in S. pombe by growing the transformed cultures in the absence of thiamine for 16-20 hours. In the case of fission-yeast temperature-sensitive mutants carrying the GFP-MreB plasmid, cultures were grown in the absence of thiamine for 25-30 hours at 24° C. to allow sufficient expression of the protein. However, prior to the formation of MreB-polymers, the cultures were shifted to restrictive temperatures for a period of 4 hours. The cells were subsequently fixed and stained for actin or tubulin.
The cells were-either fixed with formaldehyde 0.7%) or observed live under a fluorescence microscope. Inhibition of MreB polymerization was achieved by the addition of A22 at a final concentration of 50 μg/ml after 14-16 hours of growth in the absence of thiamine. Cultures were allowed to grow further for a period of 6-8 hours before washing of A22 for time-lapse microscopy. The cells were mounted onto agarose slides, and images were acquired at fixed time intervals. Immunofluorescence was carried out as described in Balasubramanian et al., Meth. Enzymol. 283:494-495, 1997.
Next, whether MreB polymerization in fission yeast was mechanistically related to its polymerization in bacteria was assessed. Studies in bacteria have shown that the small molecule A22 affects the polymerization and/or maintenance of MreB polymers. To test whether A22 prevents polymerization of MreB in fission yeast, cells were treated with A22 prior to the induction of MreB expression. Cells expressing GFP-MreB were treated with the MreB-inhibitor A22 (0 minute time point) at a concentration of 50 μg/ml. The drug then was washed out, and cells were imaged by time-lapse microscopy.
To this end, cells containing preformed MreB bundles were treated with A22.

F-actin = target: T2, F-actin (Schizosaccharomyces pombe, UniProt P10989); assay: F-actin staining (rhodamine-conjugated phalloidin) in S. pombe cells expressing GFP-MreB; type: cell-based; conditions: LatA 20 μg/ml for 10 minutes
T2 construct: endogenous in cells; host or cells: Schizosaccharomyces pombe cells expressing GFP-MreB
Protocol: S. pombe cells expressing GFP-MreB were fixed with methanol and incubated with tubulin (1:100) antibodies. Mouse secondary antibodies conjugated to Alexa-594™ were used at 1:400 for visualizing tubulin. For actin staining, cultures were fixed with formaldehyde (3.7%) and permeablized by using 1% Triton-X 100 in PBS. Rhodamine-conjugated phalloidin was used to visualize S. pombe actin. Latrunculin A (LatA) was added at a final concentration of 20 μg/ml for 10 minutes, and methyl 1-(butylcarbanoyl)-2-benzimidazolecarbamate (MBC) was added at a 25 μg/ml for 20 minutes. For methods, see Karagiannis et al., Mol. Biol. Cell 16:358-371, 2005 and Sawin et al., J. Cell Sci. 117:689-700, 2004, the disclosures of which are hereby incorporated by reference. For time-lapse imaging, LatA and MBC were included simultaneously in the agarose pads. […] Pictures were obtained with a CCD camera (CoolSnapHQ™, Photometrics™). The images were acquired and processed with Meta-morph™.
Studies therefore were performed to determine whether MreB assembly and maintenance was dependent on F-actin and microtubules. Cells were grown in the absence of thiamine to allow expression GFP-MreB. Cultures were then treated with LatA (20 μg/ml) for 10 minutes or methyl 1-butylcarbamoyl-2-benzimidazolecarbamate MBC (25 μg/ml) for 20 minutes to disrupt F-actin and microtubule, respectively. […]

GFP-MreB D165E = GFP-MreB D165E (Escherichia coli, UniProt P0A9X4, D165E); conditions: GFP-MreB D165E in wild type fission yeast
Text: (§1) The MreB ATPase mutants were generated by overlap PCR with the following mutagenic primers: MOH2516 and MOH2517 for E143A and MOH2512 and MOH2513 for D165E along with the above-mentioned end primers (MOH2413 and MOH2414). The GFP-MreB mutants were all cloned into pREP42. All plasmids and mutations were verified by sequencing.
(§2) In bacteria, mutations in the vicinity of the ATP binding pocket of MreB confer A22 resistance. […] Plasmids expressing GFP-MreB E143A (see Garner et al., Science 306:1021-1025, 2004) or D165E (see Kruse et al., EMBO J. 22:5283-5292, 2003) were introduced into wild type fission yeast cells. Cultures were grown in the absence of thiamine to induce the expression of GFP fusion proteins. […] See FIGS. 15A (E143A) and 15B (D165E).

GFP-MreB E143A = GFP-MreB E143A (Escherichia coli, UniProt P0A9X4, E143A); conditions: GFP-MreB E143A in wild type fission yeast
Text: as §1, §2

T1 sequence (P0A9X4 whole entry, the tested form may be a part): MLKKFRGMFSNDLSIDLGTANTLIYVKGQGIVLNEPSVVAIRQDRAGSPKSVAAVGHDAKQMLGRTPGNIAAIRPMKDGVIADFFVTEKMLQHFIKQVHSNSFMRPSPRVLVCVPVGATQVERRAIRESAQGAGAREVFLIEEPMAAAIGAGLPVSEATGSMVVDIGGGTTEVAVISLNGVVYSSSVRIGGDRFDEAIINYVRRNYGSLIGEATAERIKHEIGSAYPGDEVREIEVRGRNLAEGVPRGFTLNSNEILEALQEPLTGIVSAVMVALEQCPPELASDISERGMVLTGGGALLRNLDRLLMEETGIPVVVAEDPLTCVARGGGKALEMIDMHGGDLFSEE
GFP-MreB E143A, sequence (P0A9X4 whole entry E143A): as the sequence (P0A9X4 whole entry, the tested form may be a part) above, with E143A counted along it
GFP-MreB D165E, sequence (P0A9X4 whole entry D165E): as the sequence (P0A9X4 whole entry, the tested form may be a part) above, with D165E counted along it

SMILES | Maintenance of MreB bundles (MreB; LatA 20 μg/ml for 10 minutes) | MreB nucleation and assembly after A22 washout (MreB; simultaneous presence of LatA (20 μg/ml) and MBC (25 μg/ml) in agarose pads) | Effect on average growth rate of MreB bundles (MreB; simultaneous presence of LatA and MBC, rate without them 0.46±0.03 μm/min (n=44)) | Disruption of F-actin (F-actin) | MreB polymerization in fission yeast (MreB; A22 50 μg/ml, S. pombe cells expressing GFP-MreB, 0 minute time point before washout) | Reversibility of the effect on MreB polymerization (MreB; after removal of A22 (50 μg/ml), MreB filaments re-established at 20 minutes) | Severing and/or disassembly of preformed MreB bundles (MreB; cells with prominent GFP-MreB bundles cultured 1 hour with A22) | Structures assembled by MreB ATPase mutant, sensitivity to A22 (GFP-MreB D165E) | Structures assembled by MreB ATPase mutant, sensitivity to A22 (GFP-MreB E143A)
C/C1=C/C(=O)O[C@@H]2C[C@@H](CC[C@H](C)/C=C\C=C\CC1)O[C@@](O)([C@@H]1CSC(=O)N1)C2 [LatA, Latrunculin A] | remained unperturbed | MreB nucleated and assembled into polymers | did not vary significantly | completely disassembled | – | – | – | – | –
N=C(N)SCc1ccc(Cl)c(Cl)c1 [A22] | – | – | – | – | did not exhibit MreB polymers | reversible | pre-existing bundles were unaffected | assembled similar structures both in the presence and absence of A22 | assembled similar structures both in the presence and absence of A22

From patent publication US20100137146A1, “Method of Screening Antibacterial Drug Compounds” (Temasek Lifesciences Laboratory, priority 2006, published 2010)
